Source: patent US5726186A, “Pentacyclic compounds, intermediates, processes, compositions, and methods” (Eli Lilly and Company, priority 1996, dated 1998)
pIC50: −log10 of the molar value.

Tests used:
uterus = experiment: Wet uterine weight in ovariectomized rats (post-menopausal model); format: in vivo, female Sprague Dawley rats (ovariectomized); conditions: oral, OVX rats
Protocol: In the examples illustrating the methods, a post-menopausal model was used in which effects of different treatments upon circulating lipids were determined.
(§1) Seventy-five day old female Sprague Dawley rats (weight range of 200 to 225 g) were obtained from Charles River Laboratories (Portage, Mich.). The animals were either bilaterally ovariectomized (OVX) or exposed to a Sham surgical procedure at Charles River Laboratories, and then shipped after one week. Upon arrival, they were housed in metal hanging cages in groups of 3 or 4 per cage and had ad libitum access to food (calcium content approximately 0.5%) and water for one week. Room temperature was maintained at 22.2°±1.7° C. with a minimum relative humidity of 40%. The photoperiod in the room was 12 hours light and 12 hours dark.
(§2) Dosing Regimen Tissue Collection. After a one week acclimation period (therefore, two weeks post-OVX) daily dosing with test compound was initiated. 17a-ethynyl estradiol or the test compound were given orally, unless otherwise stated, as a suspension in 1% carboxymethylcellulose or dissolved in 20% cyclodextrin. Animals were dosed daily for 4 days. Following the dosing regimen, animals were weighed and anesthetized with a ketamine: Xylazine (2:1, V:V) mixture and a blood sample was collected by cardiac puncture. The animals were then sacrificed by asphyxiation with CO2, the uterus was removed through a midline incision, and a wet uterine weight was determined.
(§3) The data presented in the Tables 1 below reflects the response of 5 to 6 rats per treatment.

[1] = test system: Uterine Eosinophil Peroxidase (EPO); experiment: Uterine Eosinophil Peroxidase (EPO) Assay; format: in vivo, female Sprague Dawley rats (ovariectomized); set-up: Uterine EPO (V. max): unit not given here; conditions: oral, daily for 4 days, OVX rats; for Uterine EPO (V. max): 450 nm
Description: as §1, §2
Uterine Eosinophil Peroxidase (EPO) Assay. Uteri were kept at 4° C. until time of enzymatic analysis. The uteri were then homogenized in 50 volumes of 50 mM Tris buffer (pH-8.0) containing 0.005% Triton X-100. Upon addition of 0.01% hydrogen peroxide and 10 mM O-phenylenediamine (final concentrations) in Tris buffer, increase in absorbance was monitored for one minute at 450 nm. The presence of eosonophils in the uterus is an indication of estrogenic activity of a compound. The maximal velocity of a 15 second interval was determined over the initial, linear portion of the reaction curve.
As is expressed in the below data, estrogenicity also was assessed by evaluating the adverse response of eosinophil infiltration into the uterus.
as §3

Serum Cholesterol = experiment: Serum cholesterol analysis in ovariectomized rats; format: in vivo, female Sprague Dawley rats (ovariectomized); conditions: oral, OVX rats
Description: as §1, §2
Cholesterol Analysis. Blood samples were allowed to clot at room temperature for 2 hours, and serum was obtained following centrifugation for 10 minutes at 3000 rpm. Serum cholesterol was determined using a Boehringer Mannheim Diagnostics high performance cholesterol assay. Briefly the cholesterol was oxidized to cholest-4-en-3-one and hydrogen peroxide. The hydrogen peroxide was then reacted with phenol and 4-aminophenazone in the presence of peroxidase to produce a p-quinone imine dye, which was read spectrophotemetrically at 500 nm. Cholesterol concentration was then calculated against a standard curve. The entire assay was automated using a Biomek Automated Workstation.
as §3

[2] = test system: MCF-7 breast adenocarcinoma cells; experiment: MCF-7 Proliferation Assay (tritiated thymidine); format: cell-based; conditions: Homo sapiens, MCF7; MCF-7 cells, 48 hours, tritiated thymidine pulse 4 hours
Protocol: MCF-7 breast adenocarcinoma cells (ATCC HTB 22) were maintained in MEM (minimal essential medium, phenol red-free, Sigma, St. Louis, Mo.) supplimented with 10% fetal bovine serum […] (V/V), L-glutamine (2 mM), sodium pyruvate (1 mM), HEPES {(N-[2-hydroxyethyl]piperazine-N'-[2-ethanesulfonic acid]10 mM)}, non-essential amino acids and bovine insulin (1 ug/mL) (maintenance medium). Ten days prior to assay, MCF-7 cells were switched to maintenance medium supplemented with 10% dextran coated charcoal stripped fetal bovine serum (DCC-FBS) assay medium) in place of 10% FBS to deplete internal stores of steroids. MCF-7 cells were removed from maintenance flasks using cell dissociation medium (Ca++/Mg++ free HBSS (phenol red-free) supplemented with 10 mM HEPES and 2 mM EDTA). Cells were washed twice with assay medium and adjusted to 80,000 cells/mL. Approximately […] (8,000 cells) were added to flat-bottom microculture wells (Costar 3596) and incubated at 37° C. in a 5% CO2 humidified incubator for 48 hours to allow for cell adherence and equilibration after transfer. Serial dilutions of drugs or DMSO as a diluent control were prepared in assay medium and […] to triplicate microcultures followed by […] assay medium for a final volume of […]. After an additional 48 hours at 37° C. in a 5% CO2 humidified incubator, microcultures were pulsed with tritiated thymidine (1 uCi/well) for 4 hours. Cultures were terminated by freezing at -70° C. for 24 hours followed by thawing and harvesting of microcultures using a Skatron Semiautomatic Cell Harvester. Samples were counted by liquid scintillation using a Wallac BetaPlace b counter. Results in Table 3 below show the IC50 for certain compounds of the present invention.

Distal Femur Metaphysis = experiment: Osteoporosis test, distal femur metaphysis X-ray image analysis; format: in vivo, female Sprague Dawley rats (ovariectomized); conditions: oral; for Distal Femur Metaphysis (X-ray Image Analysis-Gray Score), percent protection relative to ovariectomy: daily for 35 days, in 20% hydroxypropyl b-cyclodextrin
Description: Seventy-five day old female Sprague Dawley rats (weight range of 200 to 225 g) were obtained from Charles River Laboratories (Portage, Mich.). The animals were either bilaterally ovariectomized (OVX) or exposed to a Sham surgical procedure at Charles River Laboratories, and then shipped after one week. Upon arrival, they were housed in metal hanging cages in groups of 3 or 4 per cage and had ad libitum access to food (calcium content approximately 0.5%) and water for one week. Room temperature was maintained at 22.2°±1.7° C. with a minimum relative humidity of 40%. The photoperiod in the room was 12 hours light and 12 hours dark. Following the General Preparation Procedure, infra, the rats were treated daily for 35 days (6 rats per treatment group) and sacrificed by carbon dioxide asphyxiation on the 36th day. The 35 day time period was sufficient to allow maximal reduction in bone density, measured as described herein. At the time of sacrifice, the uteri were removed, dissected free of extraneous tissue, and the fluid contents were expelled before determination of wet weight in order to confirm estrogen deficiency associated with complete ovariectomy. […] The uteri were then placed in 10% neutral buffered formalin to allow for subsequent histological analysis. The right femurs were excised and digitilized x-rays generated and analyzed by an image analysis program (NIH image) at the distal metaphysis. The proximal aspect of the tibiae from these animals were also scanned by quantitative computed tomography. In accordance with the above procedures, compounds of the present invention and ethynyl estradiol (EE2) in 20% hydroxypropyl b-cyclodextrin were orally administered to test animals. Distal femur metaphysis data presented in Tables 2 and 3 below are the results of formula I compound treatments compared to intact and ovariectomized test animals. Results are reported as percent protection relative to ovariectomy.

[3] = Rattus norvegicus, 96 h, daily for 4 days, read-out: Uterine Weight (% increase vs. OVX)
[4] = Rattus norvegicus, 96 h, daily for 4 days, read-out: Serum Cholesterol (% decrease vs. OVX)

Compound	change in vivo at 0.1 mg/kg (uterus; [3]) [%]	change in vivo at 1 mg/kg (uterus; [3]) [%]	change in vivo at 10 mg/kg (uterus; [3]) [%]	Uterine EPO (V. max) ([1]; 0.1 mg/kg)	Uterine EPO (V. max) ([1]; 1.0 mg/kg)	Uterine EPO (V. max) ([1]; 10.0 mg/kg)	inhibition in vivo at 0.1 mg/kg (Serum Cholesterol; [4]) [%]	inhibition in vivo at 1 mg/kg (Serum Cholesterol; [4]) [%]	inhibition in vivo at 10 mg/kg (Serum Cholesterol; [4]) [%]	pIC50 [2]	other results
Oc1ccc2c(c1)OC(c1ccc(OCCN3CCCCC3)cc1)c1c-2oc2cc(O)ccc12 (stereo not drawn) [Example 11, 3,9-Dihydroxy-6-[4-[2-(1-piperidinyl)ethoxy]phenyl]-6-H-benzofuro[3,2-c][1]benzopyran]	-8.8	3	-12.6	2.7	4.2	4.2	17.4	30.9	36.3	9.15	–
Oc1ccc2c(c1)OC(c1ccc(OCCN3CCCCC3)cc1)c1c-2ccc2cc(O)ccc12 (stereo not drawn) [Example 11b, 2,8-Dihydroxy-5-[4-[2-(1-piperidinyl)ethoxy]phenyl]-5H-benzo[b]naphtho[2,1-d]pyran]	13.6	7.6	-4.1	9.3	12.0	7.8	66.4	73.9	61.4	–	Distal Femur Metaphysis (X-ray Image Analysis-Gray Score), percent protection relative to ovariectomy (Distal Femur Metaphysis; 0.01 mg/kg): 45.6%; Distal Femur Metaphysis (X-ray Image Analysis-Gray Score), percent protection relative to ovariectomy (Distal Femur Metaphysis; 0.1 mg/kg): 38.5%; Distal Femur Metaphysis (X-ray Image Analysis-Gray Score), percent protection relative to ovariectomy (Distal Femur Metaphysis; 1.0 mg/kg): 58.5%; Distal Femur Metaphysis (X-ray Image Analysis-Gray Score), percent protection relative to ovariectomy (Distal Femur Metaphysis; 10.0 mg/kg): 37.3%
O=C(Oc1ccc2c(c1)OC(c1ccc(OCCN3CCCCC3)cc1)c1c-2sc2cc(OC(=O)c3ccccc3)ccc12)c1ccccc1 (stereo not drawn) [Example 3, 3,9-Bis(benzoyloxy)-6-[4-[2-(1-piperidinyl)ethoxy]phenyl]-6-H-[1]benzothieno[3,2-c][1]benzopyran]	32.5	7.4	–	4.2	3.0	–	51.5	50.8	–	8.52	–
c1ccc2c(c1)OC(c1ccc(OCCN3CCCCC3)cc1)c1c-2sc2ccccc12 (stereo not drawn) [Example 7, 6-[4-[2-(1-piperidinyl)ethoxy]phenyl]-6-H-[1]benzothieno[3,2-c][1]benzopyran]	28.9	31.2	14.7	4.8	6.6	3.6	39.8	65.5	54	–	–
C#CC1(O)CCC2C3CCc4cc(O)ccc4C3CCC21C (stereo not drawn) [EE2, 17α-ethynyl estradiol, reference compound]	86.3	–	–	116.4	–	–	81.4	–	–	–	Uterine weight (result in words) (uterus; EE2 at 0.1 mg/kg/day): uterine weight was substantially greater than the uterine weight of ovariectomized test animals; Eosinophil infiltration into the uterus (stromal layer) [1]: substantial, expected increase in eosinophil infiltration; Serum cholesterol (result in words) (Serum Cholesterol; EE2 at 0.1 mg/kg/day): caused a decrease in serum cholesterol; Distal Femur Metaphysis (X-ray Image Analysis-Gray Score), percent protection relative to ovariectomy (Distal Femur Metaphysis; 0.1 mg/kg): 62.4%; Prevention of bone loss (result in words) (Distal Femur Metaphysis; OVX rats, 35 days): prevented this loss
Oc1ccc2c(c1)OC(c1ccc(OCCN3CCCC3)cc1)c1c-2sc2cc(O)ccc12 (stereo not drawn) [Example 8, 3,9-Dihydroxy-6-[4-[2-(1-pyrrolidinyl)ethoxy]phenyl]-6-H-[1]benzothieno[3,2-c][1]benzopyran]	27.4	27.2	–	4.8	4.8	–	38.5	68	–	–	change in vivo at 0.01 mg/kg (uterus; Rattus norvegicus, 96 h, 0.01 mg/kg, daily for 4 days, read-out: Uterine Weight (% increase vs. OVX)): 10.2%; Uterine EPO (V. max) ([1]; 0.01 mg/kg): 2.1; inhibition in vivo at 0.01 mg/kg (Serum Cholesterol; Rattus norvegicus, 96 h, 0.01 mg/kg, daily for 4 days, read-out: Serum Cholesterol (% decrease vs. OVX)): 50.5%
CN(C)CCOc1ccc(C2Oc3cc(O)ccc3-c3sc4cc(O)ccc4c32)cc1 (stereo not drawn) [Example 9, 3,9-Dihydroxy-6-[4-(2-dimethylaminoethoxy)phenyl]-6-H-[1]benzothieno[3,2-c][1]benzopyran]	77.8	–	–	52.2	–	–	40.1	–	–	–	–
COc1ccc2c(c1)OC(c1ccc(OCCN3CCCCC3)cc1)c1c-2sc2cc(OC)ccc12 (stereo not drawn) [Example 2, 3,9-Dimethoxy-6-[4-[2-(1-piperidinyl)ethoxy]phenyl]-6-H-[1]benzothieno[3,2-c][1]benzopyran]	–	–	–	–	–	–	–	–	–	7.00	–
